US7829714B2, “Method for measuring aromatase activity” (GE Healthcare Limited, priority 2003, dated 2010)
Where two headings read alike, the source gives them in different places.

Biological target: T1, CYP19 (aromatase) containing microsomes (Homo sapiens, UniProt P11511)
T1 sequence (P11511 1-503): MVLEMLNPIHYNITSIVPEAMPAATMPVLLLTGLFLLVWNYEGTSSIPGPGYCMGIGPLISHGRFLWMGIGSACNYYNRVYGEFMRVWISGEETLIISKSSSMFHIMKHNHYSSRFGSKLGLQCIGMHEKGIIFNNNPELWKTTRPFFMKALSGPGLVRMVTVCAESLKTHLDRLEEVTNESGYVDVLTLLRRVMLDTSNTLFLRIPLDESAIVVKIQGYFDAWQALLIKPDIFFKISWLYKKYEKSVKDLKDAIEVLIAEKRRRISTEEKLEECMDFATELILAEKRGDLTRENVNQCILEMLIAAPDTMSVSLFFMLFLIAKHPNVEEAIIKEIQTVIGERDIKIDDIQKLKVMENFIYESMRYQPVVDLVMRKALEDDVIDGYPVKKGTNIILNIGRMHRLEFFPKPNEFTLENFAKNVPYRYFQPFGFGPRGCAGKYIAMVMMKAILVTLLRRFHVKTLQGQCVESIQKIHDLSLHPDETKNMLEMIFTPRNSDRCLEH
Conditions: for change in intensity relative to the control: 20 μl of CYP19 aromatase preparation (FIG. 5); for decrease in intensity relative to the control reaction: 2 μM substrate, 1 mM NADPH
Protocol: NADPH was prepared to a final concentration of 1 mM in 100 mM disodium hydrogen phosphate buffer pH7.4.
100 μl of this reagent was dispensed in to replicate wells of a 96 well microtitre plate. To each well was dispensed 20 μl-30 μl of either the CYP19 (aromatase) containing microsomes or control microsomes (no CYP19). All microsomes were adjusted to the same protein concentration with assay buffer. The plates were incubated at 37° C. for 1 hour and then fluorescence intensity measurements were recorded on the Envision Plate Reader (Perkin Elmer, US), excitation 405 nm/emission BFP450 nm.

Structure (SMILES) | change in intensity relative to the control [%] | fluorescence intensity, aromatase microsomes compared to control microsome preparation | decrease in intensity relative to the control reaction (300 of microsome preparation, 37° C. for 1 hour (FIG. 3)) [%] | decrease in fluorescence (in the absence of additional co-factor (NADPH) (FIG. 4)) [%] | decrease in fluorescence (in the presence of additional NADPH (FIG. 4)) [%] | decrease in intensity relative to the control reaction (microsome volume of 200, 37° C. for 1 hour, excitation 405 nm/emission 450 nm (FIG. 3)) [%]
O=C(O)CCCCCn1c2ccccc2c(=O)c2ccccc21 [compound XVII, 6-(9-oxoacridin-10(9H)-yl)hexanoic acid, reference compound] | 5 | – | – | – | – | –
C[C@]12CCC(=O)C=C1CC[C@@H]1[C@@H]2CC[C@]2(C)C(C(=O)NCCNC(=O)CCCCCn3c4ccccc4c(=O)c4ccccc43)CC[C@@H]12 (stereo partly shown) [Formula XX, 3-oxo-N-(2-{[6-(9-oxoacridin-10(9H)-yl)hexanoyl]amino}ethyl)androst-4-ene-17-carboxamide] | 17.5 | greater decrease in fluorescence intensity | 24.2 | 16 | 24 | 17.5
